Here are results for one substance from PMC4492822 (EMBO Molecular Medicine, 2015).

pIC50: −log10 of the molar value.

In assay [1] the test system is Twist1/Kras^G12D lung tumors. Kind of assay: Twist1/KrasG12D lung tumor model, fractionated radiation (10 fractions of 3 Gy). The class given is in vivo, mouse. The conditions noted are these: 3 weeks following treatment. The procedure: Inducible Twist1/Kras^G12D transgenic mice in the FVB/N inbred background were of the genotype: CCSP-rtTA/tetO-KrasG12D/Twist1-tetO-luc (Tran et al, [2012]). All the mice were weaned 3–4 weeks of age and then placed on dox at 4–6 weeks of age. Mice were treated with similar levels of tumor burden per micro-CT and were typically 20–30 weeks old. Mice were treated as in Fig6C and H. Each group consisted of mice, of which multiple index tumors were followed in time by micro-CT and quantified by a board-certified radiation oncologist (JZ) in a blinded fashion. Bi-dimensional measurements were made on tumors using serial examinations and tumor volumes calculated using the equation Volume = π/6 × 1.65 (length × width) × 3/2. Volumes were normalized to the starting volume, t = 0 before treatment. For 15-Gy SABR experiments, the breakdown of animal usage is (1) RT = 3 female mice, (2) RK-33 = 3 females and 1 male mice, (3) carboplatin = 3 male mice, (4) RT + carboplatin = 3 female mice, and (5) RT + RK-33 = 5 female mice. […]
The mice underwent micro-CT imaging by use of the Small Animal Radiation Research Platform (SARRP) irradiator described earlier (Wong et al, [2008]). […] Tumor volumes were quantified from the CT dataset with Pinnacle3 software v.8.1y (Philips Inc, Madison, WI) as described previously (Tran et al, [2011]; Zeng et al, [2013]). […]

The test system of assay [2] is A549, H1299, H23, and H460. Kind of assay: MTS viability assay, 72 h, lines with high DDX3 expression. It is filed as cell-based. The settings on record: range over A549, H1299, H23, H460. The procedure: Proliferation was determined by counting cancer cells over time. Cells were seeded at 7.5 × 10^4 cells/well and counted daily with a TC10 automated cell counter (Bio-Rad, Hercules, CA, USA) at least three times. Viability of cancer cells was determined by MTS assay (CellTiter 96® AQueous One Solution, Promega, Madison, WI, USA) as described by the manufacturer. Briefly, 800–2,000 cells were allowed to attach overnight in a 96-well plate, treated with different concentrations of RK-33 and kept for 72 h. MTS reagent was kept for 2 h. Each experiment was repeated a minimum of three independent times.

A further assay deals with H1299.EJ cells. Kind of assay: Non-homologous end-joining reporter assay. It is filed as cell-based. The settings on record: 4–6 μM. As for the experimental part:
NHEJ was assessed by the functional reporter system H1299-EJ, provided by E Dikomey. […] When these sites are incised by I-SceI, the artificial start codon is removed creating a DSB. Repair of this DSB by NHEJ restores GFP expression, so that cells capable for NHEJ can be identified by their GFP fluorescence intensity (Kriegs et al, [2010]). H1299.EJ cells were plated in a 6-well plate (1 × 10^5 cell/well) and treated with 4–6 μM RK-33. The following day, cells were transfected (in duplicates) with 1–2 μg of pSceI or pEGFP construct using TransIT-LT1 (Mirus, Madison, WI, USA) in serum-free media (Opti-MEM, Invitrogen, Carlsbad, CA, USA). Media was replaced after 4–6 h with complete media. Subsequently, cells were harvested by trypsinization, washed in PBS, and resuspended in 0.5 ml PBS. NHEJ activity was measured on a FACScan I instrument and analyzed on FlowJo software. Recombination frequency was calculated as ((% pSceI − % negative control) / % pEGFP). H1299-DR-GFP cells, provided by RG Bristow, were used to measure homologous recombination similarly as described above (Chan et al, [2008]).

In the next assay the test system is H1299 cells. Put plainly: qRT-PCR of TCF-regulated genes. The class given is cell-based. From the text: RNA was extracted according to the manufacturer's instructions (Qiagen, Valencia, CA, USA), and cDNA was manufactured using qScript cDNA synthesis kit (Quanta BioSciences, Gaithersburg, MD, USA), followed by qPCR using SYBR green (Quanta BioSciences) on an iCycler5 (Bio-Rad, Hercules, CA, USA). Amplification of 36B4, a housekeeping gene, was used for normalizing gene expression values.
Background: Real-time PCR tracks product formation cycle by cycle.

Another assay deals with H3255 cells. Put plainly: Immunoblotting of MAPK pathway proteins. The conditions noted are these: 7.5 μM or 10 μM, 24 h. It is filed as cell-based. The procedure:
Cell lysate was prepared with TB buffer method. For immunoblotting, ~25 μg protein was loaded on 10% SDS–PAGE gels. […] The blots were developed with clarity Western ECL (Bio-Rad, Hercules, CA, USA) and imaged with G:BOX Chemi XR5 (Syngene, Frederick, MD, USA).
For orientation: Immunoblotting shows a protein as a band on a membrane.

The target of assay [3] is Ded1p (yeast homolog of DDX3) (Saccharomyces cerevisiae, UniProt P06634). Kind of assay: RNA helicase (unwinding) assay. The conditions noted are these: Ded1p 80 nM, 100 μM ATP; 50, 100, 200 nM tested. It is filed as biochemical. As for the experimental part: The RNA helicase assay was performed as described earlier (Sengoku et al, [2006]) with a few modifications. Briefly, RNA oligomers R41 (unlabeled 41 nt) 5′-[…]-[…]-3′ and R13 (FAM-labeled 13 nt) 5′-[…]-3′ were annealed to form […] RNA duplexes and incubated with R13C (unlabeled 13-nt quencher RNA complementary to R13) 5′-[…]-3′, along with Ded1p protein (80 nM), 100 μM ATP, and […] RNasin (Promega, Madison, WI, USA) in reaction buffer containing 50 mM Tris, pH 7.8, 2 mM MgCl2, 3% glycerol, and 1 mM DTT for various times at room temperature. Reactions were stopped after 30-min incubation at room temperature with stop solution containing proteinase K (1 mg/ml) and SDS (0.6%). Reactions were loaded on acrylamide gels and bands visualized using a Typhoon scanner (GE Healthcare, Piscataway, NJ, USA).
Chain of Ded1p (yeast homolog of DDX3) (P06634 whole entry): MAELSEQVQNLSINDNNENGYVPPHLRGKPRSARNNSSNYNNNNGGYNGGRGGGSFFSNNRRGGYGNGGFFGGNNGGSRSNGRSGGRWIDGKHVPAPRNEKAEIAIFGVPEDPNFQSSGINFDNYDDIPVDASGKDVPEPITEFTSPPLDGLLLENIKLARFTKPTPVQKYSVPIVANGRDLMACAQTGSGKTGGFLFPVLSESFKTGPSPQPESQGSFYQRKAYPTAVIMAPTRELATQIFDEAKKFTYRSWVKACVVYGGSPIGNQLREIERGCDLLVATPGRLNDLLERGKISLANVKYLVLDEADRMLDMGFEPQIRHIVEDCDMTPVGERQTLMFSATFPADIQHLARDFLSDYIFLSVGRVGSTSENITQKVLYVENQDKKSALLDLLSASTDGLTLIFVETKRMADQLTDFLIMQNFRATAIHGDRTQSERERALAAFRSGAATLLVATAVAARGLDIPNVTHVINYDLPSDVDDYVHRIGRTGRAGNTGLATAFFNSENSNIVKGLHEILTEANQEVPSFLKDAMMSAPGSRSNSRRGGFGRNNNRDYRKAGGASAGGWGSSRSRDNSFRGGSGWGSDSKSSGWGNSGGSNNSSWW

As to “diimidazo[4,5-d:4′,5′-f]-[1,3]diazepine [RK-33]”, in assay [1], the “decrease in tumor growth, RK-33 and radiation versus radiation” value is “not significant”. In assay [2], the negative logarithm of the IC50 (pIC50) is 5.08 to 5.36. The “reduction of NHEJ” value with H1299.EJ cells was 38%. Besides, in the assay with H1299 cells, the “reduction of Axin-2 mRNA expression” value stood at 1.8 fold and the “reduction of Cyclin D1 mRNA expression” value worked out at 2.4 fold. Also, the ERK1/2 phosphorylation entry with H3255 cells is “increase of ERK1/2 phosphorylation”. Besides, the “concentration from which unwinding activity is reduced (dose-dependent)” value in assay [3] worked out at 50 nM.

For orientation: pIC50 means −log10 of the IC50, conventionally taken in molar units.
